Experimental data published in patent US20060040957A1, “BICYCLIC PYRIMIDINE MATRIX METALLOPROTEINASE INHIBITORS” (priority 2001, published 2006).
Where a name gives a salt, the structure may show the parent alone.

Assays:
Type in all cases: biochemical
[1] = biological target: MMP-13CD (catalytic domain of collagenase 3) (Homo sapiens, UniProt P45452); experiment: Thiopeptolide substrate hydrolysis assay, MMP-13CD; conditions: thiopeptolide substrate, HEPES pH 7.0, 22° C.; for IC50: read-out: IC50 (μM) Versus Certain MMPs: MMP-13 CD
Description: (§1) Thiopeptolide substrates show virtually no decomposition or hydrolysis at or below neutral pH in the absence of a matrix metalloproteinase enzyme.

[2] = biological target: T1, MMP-7FL (full length matrilysin) (Homo sapiens, UniProt P09237); experiment: Thiopeptolide substrate hydrolysis assay, MMP-7FL; conditions: HEPES pH 7.0, 22° C., read-out: IC50 (μM) Versus Certain MMPs: MMP-07 FL
T1 sequence (P09237 95-267): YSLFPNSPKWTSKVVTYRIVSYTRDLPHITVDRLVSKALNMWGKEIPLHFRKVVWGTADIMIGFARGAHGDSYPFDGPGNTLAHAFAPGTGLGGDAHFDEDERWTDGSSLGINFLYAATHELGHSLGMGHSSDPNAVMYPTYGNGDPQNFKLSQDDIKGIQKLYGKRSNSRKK
Description: (§2) The invention compounds of Formula I have been evaluated in standard assays for their ability to inhibit the catalytic activity of various MMP enzymes.
as §1
(§3) Several representative compounds have been evaluated for their ability to inhibit various matrix metalloproteinase enzymes.

[3] = biological target: MMP-9FL (full length Gelatinase B) (Homo sapiens, UniProt P14780); experiment: Thiopeptolide substrate hydrolysis assay, MMP-9FL; conditions: HEPES pH 7.0, 22° C., read-out: IC50 (μM) Versus Certain MMPs: MMP-09 FL
MMP-9FL (full length Gelatinase B), sequence (P14780 94-707, species assumed): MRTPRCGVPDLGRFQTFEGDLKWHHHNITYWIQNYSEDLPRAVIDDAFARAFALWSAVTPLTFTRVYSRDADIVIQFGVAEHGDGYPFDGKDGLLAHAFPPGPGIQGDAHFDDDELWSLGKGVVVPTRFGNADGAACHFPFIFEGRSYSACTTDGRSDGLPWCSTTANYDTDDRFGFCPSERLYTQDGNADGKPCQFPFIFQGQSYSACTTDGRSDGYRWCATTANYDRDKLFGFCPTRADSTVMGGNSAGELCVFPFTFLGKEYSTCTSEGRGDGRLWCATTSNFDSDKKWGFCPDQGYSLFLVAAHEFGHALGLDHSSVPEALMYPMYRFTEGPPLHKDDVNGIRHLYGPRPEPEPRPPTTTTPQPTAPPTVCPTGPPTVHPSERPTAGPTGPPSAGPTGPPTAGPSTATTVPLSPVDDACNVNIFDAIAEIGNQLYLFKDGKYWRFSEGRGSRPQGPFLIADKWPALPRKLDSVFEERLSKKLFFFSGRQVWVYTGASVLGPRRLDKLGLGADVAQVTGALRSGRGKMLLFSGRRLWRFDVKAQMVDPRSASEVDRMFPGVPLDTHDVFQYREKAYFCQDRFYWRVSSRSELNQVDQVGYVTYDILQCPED
Description: as §2, §1, §3

[4] = biological target: T2, MMP-2FL (full length Gelatinase A) (Homo sapiens, UniProt P08253); experiment: Thiopeptolide substrate hydrolysis assay, MMP-2FL; conditions: HEPES pH 7.0, 22° C., read-out: IC50 (μM) Versus Certain MMPs: MMP-02 FL
T2 sequence (P08253 110-660): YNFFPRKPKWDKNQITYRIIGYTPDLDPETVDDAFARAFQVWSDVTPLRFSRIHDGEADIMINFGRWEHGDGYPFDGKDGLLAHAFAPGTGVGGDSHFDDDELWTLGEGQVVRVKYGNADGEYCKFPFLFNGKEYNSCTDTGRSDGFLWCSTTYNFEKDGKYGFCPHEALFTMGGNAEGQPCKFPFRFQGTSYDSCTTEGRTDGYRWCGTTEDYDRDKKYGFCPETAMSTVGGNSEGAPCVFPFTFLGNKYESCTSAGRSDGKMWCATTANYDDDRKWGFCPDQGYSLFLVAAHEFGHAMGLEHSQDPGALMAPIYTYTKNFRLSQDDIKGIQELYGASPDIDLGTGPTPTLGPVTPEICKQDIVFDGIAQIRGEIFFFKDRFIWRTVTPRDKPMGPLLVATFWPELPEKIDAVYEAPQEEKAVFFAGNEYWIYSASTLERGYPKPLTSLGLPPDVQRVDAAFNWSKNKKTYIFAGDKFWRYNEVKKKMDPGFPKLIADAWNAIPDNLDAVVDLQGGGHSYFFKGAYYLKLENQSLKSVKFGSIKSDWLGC
Description: as §2, §1, §3

[5] = biological target: MMP-14CD (catalytic domain of MMP-14) (Homo sapiens, UniProt P50281); experiment: Thiopeptolide substrate hydrolysis assay, MMP-14CD; conditions: HEPES pH 7.0, 22° C., read-out: IC50 (μM) Versus Certain MMPs: MMP-14 CD
Description: as §2, §1, §3

Structure (SMILES) | IC50 [1] | IC50 (μM) Versus Certain MMPs: MMP-13 CD [1] | IC50 [2] | IC50 [3] | IC50 [4] | IC50 [5]
O=c1cc2sccn2c(=O)n1Cc1ccncc1 [6-(4-Pyridylmethyl)-thiazolo[3,2-c]pyrimidine-5,7,dione] | > 100 µM |  |  |  |  | 
O=C(c1ccccc1)n1c(=O)cc2sccn2c1=O [6-Benzoyl-thiazolo[3,2-c]pyrimidine-5,7-dione] | > 100 µM |  |  |  |  | 
O=c1cc2sc(C(O)c3ccccc3)cn2c(=O)n1Cc1ccccc1 (stereo not drawn) [Example 7, 6-Benzyl-2-(hydroxy-phenyl-methyl)-thiazolo[3,2-c]pyrimidine-5,7-dione] | 32 µM |  |  |  |  | 
O=C(OCc1ccccc1)C1CSc2cc(=O)n(Cc3ccccc3)c(=O)n21 (stereo not drawn) [Example 20, 6-Benzyl-5,7-dioxo-2,3,6,7-tetrahydro-5H-thiazolo[3,2-c]pyrimidine-3-carboxylic acid benzyl ester] |  | none |  |  |  | 
Cc1c(=O)n(Cc2ccccc2)c(=O)n2cc(C(=S)NCc3ccccc3)sc12 [Example 24, 6-Benzyl-8-methyl-5,7-dioxo-6,7-dihydro-5H-thiazolo[3,2-c]pyrimidine-2-carbothioic acid benzylamide] | > 30 µM |  |  |  |  | 
COC(=O)c1sc2cc(=O)n(Cc3ccccc3)c(=O)n2c1C [Example 26, 6-Benzyl-3-methyl-5,7-dioxo-6,7-dihydro-5H-thiazolo[3,2-c]pyrimidine-2-carboxylic acid methyl ester] | > 100 µM |  |  |  |  | 
Cc1c(=O)n(Cc2ccccc2)c(=O)n2cc(C(=O)NCc3ccc(Cl)cc3Cl)sc12 [Example 27, 6-Benzyl-8-methyl-5,7-dioxo-6,7-dihydro-5H-thiazolo[3,2-c]pyrimidine-2-carboxylic acid 2,4-dichloro-benzylamide] | > 30 µM |  |  |  |  | 
Cc1c(=O)n(Cc2ccccc2)c(=O)n2cc(C(O)C=Cc3ccccc3)sc12 (stereo not drawn) [Example 29, 6-Benzyl-2-(1-hydroxy-3-phenyl-allyl)-8-methyl-thiazolo[3,2-c]pyrimidine-5,7-dione] | 25 µM |  |  |  |  | 
Cc1c(=O)n(Cc2ccccc2)c(=O)n2cc(C(O)C#Cc3ccccc3)sc12 (stereo not drawn) [Example 31, 6-Benzyl-2-(1-hydroxy-3-phenyl-prop-2-ynyl)-8-methyl-thiazolo[3,2-c]pyrimidine-5,7-dione] | > 30 µM |  |  |  |  | 
Cc1c(=O)n(Cc2ccccc2)c(=O)n2cc(C(=O)O)sc12 [Example 33, 6-Benzyl-8-methyl-5,7-dioxo-6,7-dihydro-5H-thiazolo[3,2-c]pyrimidine-2-carboxylic acid] | > 100 µM |  |  |  |  | 
Cc1nc(Cn2c(=O)c(C)c3sc(C(=O)NCc4ccc(F)cc4)cn3c2=O)cs1 [Example 64, 8-Methyl-6-(2-methyl-thiazol-4-ylmethyl)-5,7-dioxo-6,7-dihydro-5H-thiazolo[3,2-c]pyrimidine-2-carboxylic acid 4-fluoro-benzylamide] |  |  | > 100 µM | > 30 µM | > 100 µM | > 100 µM

The remaining lines, values ahead:

IC50 [1] | IC50 (μM) Versus Certain MMPs: MMP-13 CD [1] | IC50 [2] | IC50 [3] | IC50 [4] | IC50 [5] | Structure (SMILES)
 |  | > 30 µM | > 30 µM | > 30 µM | > 30 µM | Cc1c(=O)n(Cc2ccc(F)cc2)c(=O)n2cc(C(=O)NCc3ccncc3)sc12 [Example 70, 6-(4-Fluoro-benzyl)-8-methyl-5,7-dioxo-6,7-dihydro-5H-thiazolo[3,2-c]pyrimidine-2-carboxylic acid(pyridin-4-ylmethyl)-amide hydrochloride]
 |  | > 30 µM | > 30 µM | > 30 µM | > 30 µM | Cc1c(=O)n(Cc2ccc(Br)cc2)c(=O)n2cc(C(=O)NCc3ccncc3)sc12 [Example 71, 6-(4-Bromo-benzyl)-8-methyl-5,7-dioxo-6,7-dihydro-5H-thiazolo[3,2-c]pyrimidine-2-carboxylic acid(pyridin-4-ylmethyl)-amide hydrochloride]
 |  | > 30 µM | > 30 µM | > 30 µM | > 30 µM | Cc1c(=O)n(Cc2ccc(Cl)cc2)c(=O)n2cc(C(=O)NCc3ccncc3)sc12 [Example 72, 6-(4-Chloro-benzyl)-8-methyl-5,7-dioxo-6,7-dihydro-5H-thiazolo[3,2-c]pyrimidine-2-carboxylic acid(pyridin-4-ylmethyl)-amide]
 |  | > 100 µM | > 100 µM | > 100 µM | > 30 µM | Cc1c(=O)n(Cc2ccc(C(=O)N3CCOCC3)cc2)c(=O)n2cc(C(=O)NCc3ccncc3)sc12 [Example 73, 8-Methyl-6-[4-(morpholine-4-carbonyl)-benzyl]-5,7-dioxo-6,7-dihydro-5H-thiazolo[3,2-c]pyrimidine-2-carboxylic acid(pyridin-4-ylmethyl)-amide hydrochloride]
 |  | 87 µM | > 30 µM | > 30 µM | > 30 µM | COC(=O)Nc1cc(Cn2c(=O)c(C)c3sc(C(=O)NCc4ccc(F)cc4)cn3c2=O)on1 [Example 74, {5-[2-(4-Fluoro-benzylcarbamoyl)-8-methyl-5,7-dioxo-7H-thiazolo[3,2-c]pyrimidin-6-ylmethyl]-isoxazol-3-yl}-carbamic acid methyl ester]
 |  | > 100 µM | > 100 µM | > 100 µM | > 100 µM | Cc1c(=O)n(Cc2ccc(-c3nn[nH]n3)cc2)c(=O)n2cc(C(=O)NCc3ccc(F)cc3)sc12 [Example 75, 8-Methyl-5,7-dioxo-6-[4-(2H-tetrazol-5-yl)-benzyl]-6,7-dihydro-5H-thiazolo[3,2-c]pyrimidine-2-carboxylic acid 4-fluoro-benzylamide]
 |  | > 30 µM | > 30 µM | > 30 µM | > 30 µM | Cc1c(=O)n(Cc2ccc(C(=O)N3CCOCC3)cc2)c(=O)n2cc(C(=O)NCc3ccc(F)cc3)sc12 [Example 76, 8-Methyl-6-[4-(morpholine-4-carbonyl)-benzyl]-5,7-dioxo-6,7-dihydro-5H-thiazolo[3,2-c]pyrimidine-2-carboxylic acid 4-fluoro-benzylamide]
 |  | > 30 µM | > 30 µM | > 30 µM | > 30 µM | Cc1c(=O)n(Cc2ccc3cc(F)ccc3n2)c(=O)n2cc(C(=O)NCc3ccc(F)cc3)sc12 [Example 77, 6-(6-Fluoro-quinolin-2-ylmethyl)-8-methyl-5,7-dioxo-6,7-dihydro-5H-thiazolo[3,2-c]pyrimidine-2-carboxylic acid 4-fluoro-benzylamide]
 |  | > 100 µM | > 100 µM | > 100 µM | > 100 µM | CC#CCn1c(=O)c(C)c2sc(C(=O)NCc3ccc(F)cc3)cn2c1=O [Example 79, 6-But-2-ynyl-8-methyl-5,7-dioxo-6,7-dihydro-5H-thiazolo[3,2-c]pyrimidine-2-carboxylic acid 4-fluoro-benzylamide]
 |  | > 30 µM | > 30 µM | > 30 µM | > 30 µM | Cc1c(=O)n(Cc2ccc3oc(=O)ccc3c2)c(=O)n2cc(C(=O)NCc3ccc(F)cc3)sc12 [Example 80, 8-Methyl-5,7-dioxo-6-(2-oxo-2H-1-benzopyran-6-ylmethyl)-6,7-dihydro-5H-thiazolo[3,2-c]pyrimidine-2-carboxylic acid 4-fluoro-benzylamide]
 |  | > 30 µM | > 30 µM | > 30 µM | > 30 µM | Cc1c(=O)n(Cc2cccc(C#N)c2)c(=O)n2cc(C(=O)NCc3ccncc3)sc12 [Example 82, 6-(3-Cyano-benzyl)-8-methyl-5,7-dioxo-6,7-dihydro-5H-thiazolo[3,2-c]pyrimidine-2-carboxylic acid(pyridin-4-ylmethyl)-amide hydrochloride]
 |  | > 100 µM | > 100 µM | > 100 µM | > 100 µM | Cc1c(=O)n(Cc2ccc(S(N)(=O)=O)cc2)c(=O)n2cc(C(=O)NCc3ccncc3)sc12 [Example 84, 8-Methyl-5,7-dioxo-6-(4-sulfamoyl-benzyl)-6,7-dihydro-5H-thiazolo[3,2-c]pyrimidine-2-carboxylic acid(pyridin-4-ylmethyl)-amide hydrochloride]
 |  | > 30 µM | > 30 µM | > 30 µM | > 30 µM | COc1cccc(CNC(=O)c2cn3c(=O)n(Cc4ccccc4)c(=O)c(C)c3s2)c1 [Example 109, 6-Benzyl-8-methyl-5,7-dioxo-6,7-dihydro-5H-thiazolo[3,2-c]pyrimidine-2-carboxylic acid 3-methoxy-benzylamide]
